Data from patent US20250313535A1, “ALPHA 4 BETA 7 INTEGRIN MODULATORS AND USES THEREOF” (DICE MOLECULES SV, INC., priority 2022, published 2025).

What was measured:
[1] = target: α4β7 integrin (Homo sapiens (Human), UniProt P13612+P26010); experiment: Integrin Adhesion Assay: Protocol 1 (MAdCAM-coated plate, RPMI-8866 cells, CellTiter GLO readout); type: cell-based; settings: integrin adhesion assay; determined by at least one of the assays described (protocol not specified)
Method in brief: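 RPMI-8866 cells (2×10^6 per mL) added with compounds (1% DMSO) to MAdCAM-coated wells blocked in HEPES/NaCl buffer with 1 mM MnCl2, 0.1 mM CaCl2, 1% BSA; 1 h at 37° C, 5% CO2. After four washes, bound cells read by CellTiter GLO luminescence; % inhibition vs DMSO and control wells, 4-parameter fit.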

[2] = target: α4β1 integrin (Homo sapiens (Human), UniProt P05556+P13612); experiment: Integrin Adhesion Assay: Protocol 2 (VCAM-coated plate, Jurkat cells, CellTiter GLO readout); type: cell-based; settings: determined by at least one of the assays described (protocol not specified)
Description: α4β7 and α4β1 inhibition was evaluated in vitro using at least one of the following procedures:
Integrin Adhesion Assay: Protocol 2
VCAM (R&D Systems, 0.1 ug) was diluted in 50 μL PBS, added to each well of an opaque ELISA plate (Thermo), and incubated overnight at 4° C. Coated plates were washed once with PBS and then blocked with 200 μL of assay buffer (10 mM HEPES, 150 mM NaCl, 1 mM MnCl2, 0.1 mM CaCl2), 1% BSA) for 1 hour at 37° C. and 5% CO2. After incubation, buffer was aspirated from the plates and 50 μL of fresh assay buffer was added. Compounds were added by compounds dispenser (Tecan) and DMSO concentration was normalized to 1% across each plate. 50 μL of Jurkat cells (2×10^6 per mL) were added to each well and the plates were incubated for 1 hour at 37° C. and 5% CO2. After incubation, plates were allowed to cool to RT for 10 minutes before being washed four times in assay buffer by an automated plate washer (BioTek). After washing, 100 μL of a 1:1 mixture of assay buffer and CellTiter GLO 2.0 reagent (Promega) were added to each well. Plates were mixed for 2 minutes at 1000 rpm and then allowed to incubate an additional 10 minutes before reading out luminescence on a Tecan Spark plate reader. Raw data was converted to percent inhibition based on DMSO only and control compound wells, and curves were analyzed by 4-parameter fit within Dotmatics software.

Sequence of α4β7 integrin (P13612 34-1032): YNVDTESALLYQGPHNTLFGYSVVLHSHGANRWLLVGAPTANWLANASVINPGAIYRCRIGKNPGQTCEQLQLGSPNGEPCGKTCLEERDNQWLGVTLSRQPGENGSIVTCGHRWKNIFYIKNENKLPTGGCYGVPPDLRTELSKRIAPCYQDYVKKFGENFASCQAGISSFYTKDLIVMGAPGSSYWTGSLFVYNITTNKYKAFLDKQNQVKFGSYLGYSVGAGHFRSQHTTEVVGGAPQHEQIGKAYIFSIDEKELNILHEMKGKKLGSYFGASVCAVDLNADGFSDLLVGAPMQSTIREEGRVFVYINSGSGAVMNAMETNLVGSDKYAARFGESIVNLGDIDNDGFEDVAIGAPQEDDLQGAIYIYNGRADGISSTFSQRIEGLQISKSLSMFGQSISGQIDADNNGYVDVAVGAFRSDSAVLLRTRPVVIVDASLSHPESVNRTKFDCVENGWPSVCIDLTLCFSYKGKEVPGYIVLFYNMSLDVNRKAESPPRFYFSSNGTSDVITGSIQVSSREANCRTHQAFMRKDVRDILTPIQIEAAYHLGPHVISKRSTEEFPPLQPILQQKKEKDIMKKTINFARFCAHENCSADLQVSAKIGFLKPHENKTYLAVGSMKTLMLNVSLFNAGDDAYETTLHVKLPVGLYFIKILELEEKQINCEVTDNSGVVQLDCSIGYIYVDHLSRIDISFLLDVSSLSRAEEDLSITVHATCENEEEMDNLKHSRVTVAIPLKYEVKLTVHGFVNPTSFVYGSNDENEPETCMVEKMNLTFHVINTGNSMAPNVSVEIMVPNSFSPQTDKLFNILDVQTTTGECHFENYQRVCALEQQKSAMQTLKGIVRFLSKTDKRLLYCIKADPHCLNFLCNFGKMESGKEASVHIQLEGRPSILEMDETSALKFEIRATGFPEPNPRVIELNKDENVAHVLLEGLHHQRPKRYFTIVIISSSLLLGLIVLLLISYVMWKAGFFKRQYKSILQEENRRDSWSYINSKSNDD
Sequence of α4β7 integrin (P26010 20-798): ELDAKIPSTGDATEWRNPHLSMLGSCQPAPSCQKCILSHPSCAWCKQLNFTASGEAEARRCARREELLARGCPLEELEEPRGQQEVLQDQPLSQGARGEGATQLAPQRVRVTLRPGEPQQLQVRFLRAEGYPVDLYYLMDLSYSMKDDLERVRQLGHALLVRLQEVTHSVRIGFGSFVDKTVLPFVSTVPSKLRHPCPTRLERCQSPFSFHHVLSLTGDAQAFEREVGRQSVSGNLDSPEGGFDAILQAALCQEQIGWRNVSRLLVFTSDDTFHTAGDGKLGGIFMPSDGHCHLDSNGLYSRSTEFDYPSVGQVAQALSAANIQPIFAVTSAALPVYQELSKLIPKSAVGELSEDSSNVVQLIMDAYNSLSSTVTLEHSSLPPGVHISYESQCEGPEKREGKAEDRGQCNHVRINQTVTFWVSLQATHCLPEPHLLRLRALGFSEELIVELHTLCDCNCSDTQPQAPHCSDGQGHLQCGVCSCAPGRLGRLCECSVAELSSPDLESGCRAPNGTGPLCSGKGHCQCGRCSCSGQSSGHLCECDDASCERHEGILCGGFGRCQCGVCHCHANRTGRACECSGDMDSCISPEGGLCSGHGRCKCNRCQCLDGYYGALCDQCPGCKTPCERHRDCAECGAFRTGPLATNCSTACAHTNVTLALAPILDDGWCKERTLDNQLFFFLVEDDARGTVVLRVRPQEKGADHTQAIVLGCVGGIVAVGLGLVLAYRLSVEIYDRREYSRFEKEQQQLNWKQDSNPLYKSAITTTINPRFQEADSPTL
Sequence of α4β1 integrin (P13612 34-1032): as the sequence (P13612 34-1032) above
Sequence of α4β1 integrin (P05556 21-798): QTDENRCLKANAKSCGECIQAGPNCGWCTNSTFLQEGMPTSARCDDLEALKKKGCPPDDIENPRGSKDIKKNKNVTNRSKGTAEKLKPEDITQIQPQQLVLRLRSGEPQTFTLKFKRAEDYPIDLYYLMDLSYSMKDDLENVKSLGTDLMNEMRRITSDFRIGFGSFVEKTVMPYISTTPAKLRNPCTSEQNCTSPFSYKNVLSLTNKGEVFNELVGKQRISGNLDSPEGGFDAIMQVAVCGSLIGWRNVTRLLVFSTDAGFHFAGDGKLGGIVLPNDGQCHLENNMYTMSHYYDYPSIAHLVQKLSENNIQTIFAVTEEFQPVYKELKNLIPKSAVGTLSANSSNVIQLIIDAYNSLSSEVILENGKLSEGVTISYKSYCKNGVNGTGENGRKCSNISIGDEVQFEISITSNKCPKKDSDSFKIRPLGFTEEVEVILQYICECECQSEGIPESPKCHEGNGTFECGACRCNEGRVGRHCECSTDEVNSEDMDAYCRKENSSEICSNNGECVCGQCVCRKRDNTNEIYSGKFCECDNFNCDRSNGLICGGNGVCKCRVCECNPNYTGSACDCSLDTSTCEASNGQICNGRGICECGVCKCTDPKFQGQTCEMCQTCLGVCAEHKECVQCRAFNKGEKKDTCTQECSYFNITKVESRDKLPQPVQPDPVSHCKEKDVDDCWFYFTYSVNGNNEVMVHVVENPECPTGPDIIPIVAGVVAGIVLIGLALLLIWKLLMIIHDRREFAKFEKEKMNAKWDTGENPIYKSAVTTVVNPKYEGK

Row | IC50 [1] | IC50 [2] | Structure (SMILES)
1 | 0.01 to 0.1 µM | > 1 µM | Cn1ccc(C(F)(F)F)c(-c2nccc3c(C[C@H](NC(=O)c4c(F)cc(N5CCOC[C@H]5C(F)(F)F)cc4F)C(=O)O)cccc23)c1=O [Compound 218]
2 | 0.01 to 0.1 µM | > 1 µM | CCN1CCC(C)(C(=O)N[C@@H](Cc2cccc3c(-n4c(=O)ccn(C)c4=O)cccc23)C(=O)O)CC1 [Compound 160]
3 | 0.01 to 0.1 µM | > 1 µM | Cn1ccc(=O)n(-c2cccc3c(C[C@H](NC(=O)c4c(F)ccc(NCC(F)(F)F)c4F)C(=O)O)cccc23)c1=O [Compound 120]
4 | 0.01 to 0.1 µM | > 1 µM | Cn1ccc(C(F)(F)F)c(-c2cccc3c(C[C@H](NC(=O)c4c(F)cc(N5CCOC[C@@H]5C(F)(F)F)cc4F)C(=O)O)cccc23)c1=O [Compound 142]
5 | < 0.01 µM | > 1 µM | O=C(N[C@@H](Cc1cccc2c(-c3nccc4ccncc34)cccc12)C(=O)O)c1c(F)cc(N2CCOC[C@H]2CC(F)F)cc1CN1CCOCC1 [Compound 146]
6 | > 1 µM | > 1 µM | Cn1ccc(=O)n(-c2cccc3c(C[C@H](NC(=O)C(C)(C)c4ccc(Oc5ccccc5)cc4)C(=O)O)cccc23)c1=O [Compound 178]
7 | > 1 µM | > 1 µM | Cc1ccccc1-c1cccc(C(F)(F)C(=O)N[C@@H](Cc2cccc3c(-n4c(=O)ccn(C)c4=O)cccc23)C(=O)O)c1 [Compound 179]
8 | 0.01 to 0.1 µM | 0.1 to 1 µM | CCc1ccc(F)c(C(=O)N[C@@H](Cc2cccc3c(-n4c(=O)ccn(C)c4=O)cccc23)C(=O)O)c1F [Compound 139]
9 | 0.01 to 0.1 µM | > 1 µM | COc1cc(F)c(C(=O)N[C@@H](Cc2cccc3c(-n4c(=O)ccn(C)c4=O)cccc23)C(=O)O)c(F)c1 [Compound 28]
10 | > 1 µM | > 1 µM | Cn1ccc(=O)n(-c2cccc3c(C[C@H](NC(=O)c4ccc5cc(C(=O)N6CCC[C@@H]6c6ccccc6)ccc5c4)C(=O)O)cccc23)c1=O [Compound 49]
11 | 0.01 to 0.1 µM | > 1 µM | CN(C)CCc1cn(C)c(=O)n(-c2cccc3c(C[C@H](NC(=O)c4c(F)cccc4F)C(=O)O)cccc23)c1=O [Compound 117]
12 | 0.01 to 0.1 µM | > 1 µM | Cn1ccc(=O)n(-c2cccc3c(C[C@H](NC(=O)C4(C#N)CCN(CC(F)(F)F)CC4)C(=O)O)cccc23)c1=O [Compound 163]
13 | > 1 µM | > 1 µM | Cn1ccc(=O)n(-c2cccc3c(C[C@H](NC(=O)C4(Cc5ccc(F)cc5)CCC(F)(F)CC4)C(=O)O)cccc23)c1=O [Compound 64]
14 | 0.01 to 0.1 µM | > 1 µM | Cn1ccc(=O)n(-c2cccc3c(C[C@H](NC(=O)[C@@H]4CCCN4c4ccccc4C#N)C(=O)O)cccc23)c1=O [Compound 79]
15 | > 1 µM | > 1 µM | Cn1ccc(=O)n(-c2cccc3c(C[C@H](NC(=O)c4ccc(C(=O)N5CCc6ccccc6C5)nc4)C(=O)O)cccc23)c1=O [Compound 25]
16 | > 1 µM | > 1 µM | Cn1ccc(=O)n(-c2cccc3c(C[C@H](NC(=O)C4CCN(CC(F)(F)F)CC4)C(=O)O)cccc23)c1=O [Compound 35]
17 | > 1 µM | > 1 µM | Cn1ccc(=O)n(-c2cccc3c(C[C@H](NCc4c(F)cccc4F)C(=O)O)cccc23)c1=O [Compound 68]
18 | 0.1 to 1 µM | > 1 µM | CN([C@H](CCC(=O)O)C(=O)N[C@@H](Cc1cccc2c(-n3c(=O)ccn(C)c3=O)cccc12)C(=O)O)S(=O)(=O)c1ccccc1 [Compound 72]
19 | < 0.01 µM | > 1 µM | Cn1ccc(C(F)(F)F)c(-c2nccc3c(C[C@H](NC(=O)c4c(F)cccc4F)C(=O)O)cccc23)c1=O [Compound 210]
20 | 0.1 to 1 µM | > 1 µM | Cn1ccc(=O)n(-c2cccc3c(C[C@H](NC(=O)c4c(F)cc(CN5CCOCC5)cc4F)C(=O)O)cccc23)c1=O [Compound 34]
21 | 0.1 to 1 µM | > 1 µM | O=C(N[C@@H](Cc1cccc2c(-c3nccc4ccncc34)cccc12)C(=O)O)c1c(F)cc(N2CCOC[C@H]2CC(F)F)cc1F [Compound 140]
22 | 0.01 to 0.1 µM | > 1 µM | Cc1nccc(F)c1C(=O)N[C@@H](Cc1cccc2c(-n3c(=O)ccn(C)c3=O)cccc12)C(=O)O [Compound 17]
23 | 0.1 to 1 µM | > 1 µM | Cn1ccc(=O)n(-c2cccc3c(C[C@H](NC(=O)C45CCC(CC4)CC5)C(=O)O)cccc23)c1=O [Compound 51]

Row | IC50 [1] | IC50 [2] | Structure (SMILES)
24 | 0.01 to 0.1 µM | 0.1 to 1 µM | Cn1ccc(=O)n(-c2cccc3c(C[C@H](NC(=O)c4c(F)cncc4Cl)C(=O)O)cccc23)c1=O [Compound 110]
25 | 0.1 to 1 µM | > 1 µM | Cn1ccc(=O)n(-c2cccc3c(C[C@H](NC(=O)C4(C)CCC(C)(C)CC4)C(=O)O)cccc23)c1=O [Compound 162]
26 | 0.01 to 0.1 µM | > 1 µM | Cn1ccc(=O)n(-c2cccc3c(C[C@H](NC(=O)c4cc5ncn(CC(F)(F)F)c5cc4F)C(=O)O)cccc23)c1=O [Compound 124]
27 | 0.01 to 0.1 µM | > 1 µM | Cn1ccc(=O)n(-c2cccc3c(C[C@H](NC(=O)c4c(F)ccc(C(F)(F)F)c4F)C(=O)O)cccc23)c1=O [Compound 29]
28 | < 0.01 µM | > 1 µM | Cn1c(C(F)(F)F)ccc(-c2cccc3c(C[C@H](NC(=O)c4c(F)cc(N5CCOC[C@@H]5C(F)(F)F)cc4F)C(=O)O)cccc23)c1=O [Compound 67]
29 | < 0.01 µM | > 1 µM | CN1CCN(Cc2cc(N3CCOC[C@@H]3C(F)(F)F)cc(F)c2C(=O)N[C@@H](Cc2cccc3c(-c4c(C(F)(F)F)ccn(C)c4=O)nccc23)C(=O)O)CC1 [Compound 248]
30 | < 0.01 µM | 0.1 to 1 µM | Cn1ccc(=O)n(-c2cccc3c(C[C@H](NC(=O)c4c(F)cc(NS(C)(=O)=O)cc4F)C(=O)O)cccc23)c1=O [Compound 111]
31 | 0.01 to 0.1 µM | 0.1 to 1 µM | Cn1ccc(=O)n(-c2cccc3c(C[C@H](NC(=O)C4(C)CCOCC4)C(=O)O)cccc23)c1=O [Compound 10]
32 | 0.1 to 1 µM | > 1 µM | Cn1ccc(=O)n(-c2cccc3c(C[C@H](NC(=O)C4(C)CCCCC4)C(=O)O)cccc23)c1=O [Compound 161]
33 | > 1 µM | > 1 µM | Cn1ccc(=O)n(-c2cccc3c(C[C@H](NC(=O)C4(F)CCN(CC(F)(F)F)CC4)C(=O)O)cccc23)c1=O [Compound 164]
34 | 0.1 to 1 µM | > 1 µM | CCC1(C(=O)N[C@@H](Cc2cccc3c(-n4c(=O)ccn(C)c4=O)cccc23)C(=O)O)CCC(F)(F)CC1 [Compound 66]
35 | 0.01 to 0.1 µM | > 1 µM | COc1ccc(F)c(C(=O)N[C@@H](Cc2cccc3c(-n4c(=O)ccn(C)c4=O)cccc23)C(=O)O)c1F [Compound 138]
36 | < 0.01 µM | > 1 µM | Cn1c(CCN2CC(F)C2)cc(=O)n(-c2cccc3c(C[C@H](NC(=O)c4c(F)cc(N5CCOC[C@@H]5C(F)(F)F)cc4F)C(=O)O)cccc23)c1=O [Compound 169]
37 | 0.1 to 1 µM | > 1 µM | Cn1ccc(=O)n(-c2cccc3c(C[C@H](NC(=O)[C@@]4(C)CCCN(CC(F)(F)F)CC4)C(=O)O)cccc23)c1=O [Compound 158]
38 | 0.01 to 0.1 µM | 0.1 to 1 µM | Cn1ccc(C(F)(F)F)c(-c2cccc3c(C[C@H](NC(=O)c4c(F)cccc4F)C(=O)O)cccc23)c1=O [Compound 115]
39 | < 0.01 µM | > 1 µM | Cn1ccc(C(F)(F)F)c(-c2nccc3c(C[C@H](NC(=O)c4c(F)cc(N(CC(F)(F)F)CC(F)(F)F)cc4CN4CCCC4)C(=O)O)cccc23)c1=O [Compound 252]
40 | < 0.01 µM | > 1 µM | Cn1ccc(=O)n(-c2cccc3c(C[C@H](NC(=O)c4c(Cl)cccc4Cl)C(=O)O)cccc23)c1=O [Compound 14]
41 | < 0.01 µM | 0.1 to 1 µM | Cn1ccc(=O)n(-c2cccc3c(C[C@H](NC(=O)c4c(F)cc5c(c4F)CS(=O)(=O)N5)C(=O)O)cccc23)c1=O [Compound 43]
42 | 0.01 to 0.1 µM | > 1 µM | Cn1ccc(=O)n(-c2cccc3c(C[C@H](NC(=O)C4(C)CCN(C5COC5)CC4)C(=O)O)cccc23)c1=O [Compound 60]
43 | 0.01 to 0.1 µM | > 1 µM | Cn1ccc(=O)n(-c2cccc3c(C[C@H](NC(=O)C4(C)CCC(F)(F)CC4)C(=O)O)cccc23)c1=O [Compound 63]
44 | < 0.01 µM | > 1 µM | CN1CCN(Cc2cc(N3CCOC[C@@H]3C(F)(F)F)cc(F)c2C(=O)N[C@@H](Cc2cccc3c(-n4c(=O)ccn(C)c4=O)cccc23)C(=O)O)CC1 [Compound 22]
45 | 0.1 to 1 µM | > 1 µM | Cn1ccc(=O)n(-c2cccc3c(C[C@H](NC(=O)C(C)(C)c4cccc(-c5ccccc5)c4)C(=O)O)cccc23)c1=O [Compound 176]
46 | > 1 µM | > 1 µM | Cn1ccc(=O)n(-c2cccc3c(C[C@H](NC(=O)c4cc(C(=O)NCCCCN)n(-c5ccccc5)n4)C(=O)O)cccc23)c1=O [Compound 45]
